Test results taken from PubChem BioAssay (NCI).
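These data come from cells grown in 96-well plates and exposed to compound for 48 hours at five concentrations. The concentration for 50% growth inhibition is given as GI50. TGI marks complete inhibition of growth.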

Legend:
Assay in all cases: inhibition of tumour cell growth, NCI panel, 48 h
HCC-2998 colon = test system: HCC-2998 colon
SF-295 CNS = test system: SF-295 CNS
CCRF-CEM leukemia = test system: CCRF-CEM leukemia
U251 CNS = test system: U251 CNS
OVCAR-4 ovarian = test system: OVCAR-4 ovarian
MDA-MB-435 = test system: MDA-MB-435
UO-31 renal = test system: UO-31 renal
ACHN renal = test system: ACHN renal
NCI/ADR-RES ovarian = test system: NCI/ADR-RES ovarian
MOLT-4 leukemia = test system: MOLT-4 leukemia
NCI-H522 lung = test system: NCI-H522 lung
HOP-62 NSCLC = test system: HOP-62 NSCLC
OVCAR-8 ovarian = test system: OVCAR-8 ovarian
HS 578T breast = test system: HS 578T breast
SNB-75 CNS = test system: SNB-75 CNS
BT-549 breast = test system: BT-549 breast
HOP-92 NSCLC = test system: HOP-92 NSCLC
SNB-19 CNS = test system: SNB-19 CNS
SK-MEL-5 melanoma = test system: SK-MEL-5 melanoma
PC-3 prostate = test system: PC-3 prostate
KM12 colon = test system: KM12 colon
LOX IMVI melanoma = test system: LOX IMVI melanoma
HT29 colon = test system: HT29 colon
SR leukemia = test system: SR leukemia
UACC-257 melanoma = test system: UACC-257 melanoma
TK-10 renal = test system: TK-10 renal
UACC-62 melanoma = test system: UACC-62 melanoma
MDA-MB-231 breast = test system: MDA-MB-231 breast
CAKI-1 renal = test system: CAKI-1 renal
HCT-15 colon = test system: HCT-15 colon
SK-OV-3 ovarian = test system: SK-OV-3 ovarian
SF-268 CNS = test system: SF-268 CNS
IGROV1 ovarian = test system: IGROV1 ovarian
NCI-H460 lung = test system: NCI-H460 lung
SN12C renal = test system: SN12C renal
MALME-3M melanoma = test system: MALME-3M melanoma
A549 NSCLC = test system: A549 NSCLC
RPMI-8226 leukemia = test system: RPMI-8226 leukemia
MCF7 breast = test system: MCF7 breast
NCI-H23 lung = test system: NCI-H23 lung
OVCAR-3 ovarian = test system: OVCAR-3 ovarian
RXF 393 renal = test system: RXF 393 renal
HL-60(TB) leukemia = test system: HL-60(TB) leukemia
K-562 leukemia = test system: K-562 leukemia
SF-539 CNS = test system: SF-539 CNS
SK-MEL-28 melanoma = test system: SK-MEL-28 melanoma
M14 melanoma = test system: M14 melanoma
SW-620 colon = test system: SW-620 colon
EKVX NSCLC = test system: EKVX NSCLC
NCI-H226 lung = test system: NCI-H226 lung
OVCAR-5 ovarian = test system: OVCAR-5 ovarian
HCT-116 colon = test system: HCT-116 colon
T-47D breast = test system: T-47D breast
COLO 205 colon = test system: COLO 205 colon
DU-145 prostate = test system: DU-145 prostate
SK-MEL-2 melanoma = test system: SK-MEL-2 melanoma
A498 renal = test system: A498 renal

SMILES: COc1ccc2cnc(N)c(C#Cc3cc(C(=O)Nc4ccc(CN5CCN(C)CC5)c(C(F)(F)F)c4)cnc3C)c2c1
- GI50 (HCC-2998 colon): > 37200 nM
- TGI (HCC-2998 colon): > 50000 nM
- GI50 (SF-295 CNS): 9470 nM
- TGI (SF-295 CNS): > 33700 nM
- GI50 (CCRF-CEM leukemia): 1970 nM
- TGI (CCRF-CEM leukemia): 13100 nM
- GI50 (U251 CNS): 1080 nM
- TGI (U251 CNS): 2810 nM
- GI50 (OVCAR-4 ovarian): 1710 nM
- TGI (OVCAR-4 ovarian): 14600 nM
- GI50 (MDA-MB-435): 240 nM
- TGI (MDA-MB-435): 6990 nM
- GI50 (UO-31 renal): 412 nM
- TGI (UO-31 renal): 1220 nM
- GI50 (ACHN renal): 449 nM
- TGI (ACHN renal): 3540 nM
- GI50 (NCI/ADR-RES ovarian): 10300 nM
- TGI (NCI/ADR-RES ovarian): > 34700 nM
- GI50 (MOLT-4 leukemia): 906 nM
- TGI (MOLT-4 leukemia): 26800 nM
- GI50 (NCI-H522 lung): 7810 nM
- TGI (NCI-H522 lung): 32900 nM
- GI50 (HOP-62 NSCLC): 1190 nM
- TGI (HOP-62 NSCLC): > 18800 nM
- GI50 (OVCAR-8 ovarian): 9330 nM
- TGI (OVCAR-8 ovarian): > 28900 nM
- GI50 (HS 578T breast): 269 nM
- TGI (HS 578T breast): 1500 nM
- GI50 (SNB-75 CNS): 801 nM
- TGI (SNB-75 CNS): 8900 nM
- GI50 (BT-549 breast): 4220 nM
- TGI (BT-549 breast): 16400 nM
- GI50 (HOP-92 NSCLC): 62.9 nM
- TGI (HOP-92 NSCLC): 796 nM
- GI50 (SNB-19 CNS): 3710 nM
- TGI (SNB-19 CNS): 14700 nM
- GI50 (SK-MEL-5 melanoma): 1060 nM
- TGI (SK-MEL-5 melanoma): 7900 nM
- GI50 (PC-3 prostate): 2690 nM
- TGI (PC-3 prostate): 9170 nM
- GI50 (KM12 colon): 5 nM
- TGI (KM12 colon): 9240 nM
- GI50 (LOX IMVI melanoma): 153 nM
- TGI (LOX IMVI melanoma): 8930 nM
- GI50 (HT29 colon): 112 nM
- TGI (HT29 colon): 6010 nM
- GI50 (SR leukemia): 707 nM
- TGI (SR leukemia): 2860 nM
- GI50 (UACC-257 melanoma): 1200 nM
- TGI (UACC-257 melanoma): 14400 nM
- GI50 (TK-10 renal): 3220 nM
- TGI (TK-10 renal): 12400 nM
- GI50 (UACC-62 melanoma): 190 nM
- TGI (UACC-62 melanoma): 4200 nM
- GI50 (MDA-MB-231 breast): 158 nM
- TGI (MDA-MB-231 breast): 3910 nM
- GI50 (CAKI-1 renal): 1560 nM
- TGI (CAKI-1 renal): 9250 nM
- GI50 (HCT-15 colon): 1690 nM
- TGI (HCT-15 colon): 12900 nM
- GI50 (SK-OV-3 ovarian): > 21100 nM
- TGI (SK-OV-3 ovarian): > 50000 nM
- GI50 (SF-268 CNS): 2680 nM
- TGI (SF-268 CNS): > 29600 nM
- GI50 (IGROV1 ovarian): 318 nM
- TGI (IGROV1 ovarian): > 40200 nM
- GI50 (NCI-H460 lung): 1230 nM
- TGI (NCI-H460 lung): 4460 nM
- GI50 (SN12C renal): 490 nM
- TGI (SN12C renal): > 25300 nM
- GI50 (MALME-3M melanoma): 70.8 nM
- TGI (MALME-3M melanoma): 1830 nM
- GI50 (A549 NSCLC): 6590 nM
- TGI (A549 NSCLC): > 26900 nM
- GI50 (RPMI-8226 leukemia): 2550 nM
- TGI (RPMI-8226 leukemia): 23100 nM
- GI50 (MCF7 breast): 1430 nM
- TGI (MCF7 breast): 22200 nM
- GI50 (NCI-H23 lung): 1480 nM
- TGI (NCI-H23 lung): 12500 nM
- GI50 (OVCAR-3 ovarian): 11400 nM
- TGI (OVCAR-3 ovarian): > 50000 nM
- GI50 (RXF 393 renal): 488 nM
- TGI (RXF 393 renal): 1280 nM
- GI50 (HL-60(TB) leukemia): 1070 nM
- TGI (HL-60(TB) leukemia): > 50000 nM
- GI50 (K-562 leukemia): 5 nM
- TGI (K-562 leukemia): 749 nM
- GI50 (SF-539 CNS): 974 nM
- TGI (SF-539 CNS): 7910 nM
- GI50 (SK-MEL-28 melanoma): 372 nM
- TGI (SK-MEL-28 melanoma): 1290 nM
- GI50 (M14 melanoma): 124 nM
- TGI (M14 melanoma): 5350 nM
- GI50 (SW-620 colon): 692 nM
- TGI (SW-620 colon): 6250 nM
- GI50 (EKVX NSCLC): 3660 nM
- TGI (EKVX NSCLC): 19400 nM
- GI50 (NCI-H226 lung): 383 nM
- TGI (NCI-H226 lung): 2590 nM
- GI50 (OVCAR-5 ovarian): 640 nM
- TGI (OVCAR-5 ovarian): 1730 nM
- GI50 (HCT-116 colon): 498 nM
- TGI (HCT-116 colon): 9880 nM
- GI50 (T-47D breast): > 50000 nM
- TGI (T-47D breast): > 50000 nM
- GI50 (COLO 205 colon): 208 nM
- TGI (COLO 205 colon): > 50000 nM
- GI50 (DU-145 prostate): 2430 nM
- TGI (DU-145 prostate): 10100 nM
- GI50 (SK-MEL-2 melanoma): 3590 nM
- TGI (SK-MEL-2 melanoma): 14600 nM
- GI50 (A498 renal): 680 nM
- TGI (A498 renal): 3040 nM
